# Reference: patent US20060276464A1, “Diarylsulfone sulfonamides and use thereof” (Wyeth, priority 2005, published 2006)
# Like-named read-outs stand apart in the source and are kept apart here.
# Molecular target: T1, SFRP-1 (Homo sapiens, UniProt Q8N474)
# T1 sequence (Q8N474 32-314): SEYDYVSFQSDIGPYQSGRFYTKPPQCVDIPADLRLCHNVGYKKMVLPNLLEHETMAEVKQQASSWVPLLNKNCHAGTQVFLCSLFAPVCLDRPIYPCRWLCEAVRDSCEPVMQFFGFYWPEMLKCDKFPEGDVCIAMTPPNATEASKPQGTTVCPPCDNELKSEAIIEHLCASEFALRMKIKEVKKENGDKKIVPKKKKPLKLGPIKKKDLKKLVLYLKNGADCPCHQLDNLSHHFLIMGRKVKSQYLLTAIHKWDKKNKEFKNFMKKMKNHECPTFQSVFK
# Test: Cell-based assay for in vitro measurement of SFRP-1/SARP2 antagonist activity (U2OS cells co-transfected with 16x TCF-tk-Luciferase reporter, Wnt and hSFRP-1);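 also: U2OS cells co-transfected with a TCF-tk luciferase reporter, a Wnt vector, hSFRP-1 or empty vector and CMV-βgal, luciferase luminescence read in cell lysates alongside βgal activity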
# Conditions: for fold induction at 15 µM / fold induction at 10 µM / fold induction at 20 µM / fold induction at 30 µM: U2OS; for fold induction at 10 µM: read-out: Fold Induction with SFRP-1, U2OS cells, single dose 10 μM, luciferase reporter, fold induction over SFRP-1 control; for Fold Induction with SFRP-1 / Fold Induction without SFRP-1: Conc 15 μM
# [1] = read-out: Fold Induction with SFRP-1, Conc 15 μM, with SFRP-1, fold induction over SFRP-1 control, single dose
# [2] = read-out: Fold Induction without SFRP-1, Conc 15 μM, without SFRP-1, single dose
# [3] = read-out: Fold Induction with SFRP-1, Conc 15 μM, single dose, luciferase reporter, fold induction over SFRP-1 control, cells with SFRP-1
# [4] = read-out: Fold Induction without SFRP-1, Conc 15 μM, single dose, luciferase reporter, cells without SFRP-1 (specificity control)
# [5] = with SFRP-1, fold induction over SFRP-1 control, single dose
# [6] = read-out: Fold Induction with SFRP-1, Conc 30 μM, with SFRP-1, fold induction over SFRP-1 control, single dose
# [7] = read-out: Fold Induction without SFRP-1, Conc 30 μM, without SFRP-1, single dose
smiles,measurement,setting,value
"CC(C)c1ccc(S(=O)(=O)c2cc(F)cc(F)c2)cc1S(=O)(=O)NCCc1ccccn1 [Example 458, 5-[(3,5-difluorophenyl)sulfonyl]-2-isopropyl-N-(2-pyridin-2-ylethyl)benzenesulfonamide]",fold induction at 15 µM,[1],2.9
same,fold induction at 15 µM,[2],0.9
"CC(C)(C)OC(=O)N1CCC(NS(=O)(=O)c2cc(S(=O)(=O)c3ccccc3)ccc2Cl)CC1 [Example 623, tert-butyl 4-({[2-chloro-5-(phenylsulfonyl)phenyl]sulfonyl}amino)piperidine-1-carboxylate]",fold induction at 15 µM,[3],2.2
same,fold induction at 15 µM,[4],1.1
"Cc1ccc(S(=O)(=O)c2ccc(F)cc2)cc1S(=O)(=O)NCCC1CCOCC1 [Example 309, 5-[(4-fluorophenyl)sulfonyl]-2-methyl-N-(2-tetrahydro-2H-pyran-4-ylethyl)benzenesulfonamide]",fold induction at 15 µM,[1],1.9
same,fold induction at 15 µM,[2],0.9
"O=S(=O)(NCCc1ccccn1)c1cc(S(=O)(=O)c2ccccc2)ccc1Cl [Example 337, 2-chloro-5-(phenylsulfonyl)-N-(2-pyridin-2-ylethyl)benzenesulfonamide]",fold induction at 15 µM,[1],2.6
same,fold induction at 15 µM,[2],1.1
"CCOc1ccc(CCNS(=O)(=O)c2cc(S(=O)(=O)c3ccccc3)ccc2OC)cc1OC [Example 158, N-[2-(4-ethoxy-3-methoxyphenyl)ethyl]-2-methoxy-5-(phenylsulfonyl)benzenesulfonamide]",fold induction at 15 µM,[1],1.4
same,fold induction at 15 µM,[2],1.1
"Cc1ccc(S(=O)(=O)c2ccc(F)cc2)cc1S(=O)(=O)NCC(O)c1ccccc1 (stereo not shown) [Example 387, 5-[(4-fluorophenyl)sulfonyl]-N-(2-hydroxy-2-phenylethyl)-2-methylbenzenesulfonamide]",fold induction at 15 µM,[1],1.7
same,fold induction at 15 µM,[2],1.4
"Cc1ccc(S(=O)(=O)c2ccccc2)cc1S(=O)(=O)N1CCN(CCCN2CCOCC2)CC1 [Example 283, 4-[3-(4-{[2-methyl-5-(phenylsulfonyl)phenyl]sulfonyl}piperazin-1-yl)propyl]morpholine]",fold induction at 15 µM,[1],1.8
same,fold induction at 15 µM,[2],1.3
"Cc1cc(C)c(S(=O)(=O)c2ccccc2)cc1S(=O)(=O)NCC(O)c1cccnc1 (stereo not shown) [Example 737, N-(2-hydroxy-2-pyridin-3-ylethyl)-2,4-dimethyl-5-(phenylsulfonyl)benzenesulfonamide]",fold induction at 10 µM,,2.4
"Cc1ccc(S(=O)(=O)c2cccnc2)cc1S(=O)(=O)NCCc1ccccn1 [Example 426, 2-methyl-N-(2-pyridin-2-ylethyl)-5-(pyridin-3-ylsulfonyl)benzenesulfonamide]",fold induction at 15 µM,[1],1.3
same,fold induction at 15 µM,[2],0.8
"Cc1ccc(S(=O)(=O)c2ccc(Cl)cc2)cc1S(=O)(=O)NC[C@H](C)c1ccccc1 [Example 257, 5-[(4-chlorophenyl)sulfonyl]-2-methyl-N-[(2R)-2-phenylpropyl]benzenesulfonamide]",fold induction at 20 µM,"read-out: Fold Induction with SFRP-1, Conc 20 μM, with SFRP-1, fold induction over SFRP-1 control, single dose",2.4
same,fold induction at 20 µM,"read-out: Fold Induction without SFRP-1, Conc 20 μM, without SFRP-1, single dose",1
"CCOC(=O)C1CCCN(S(=O)(=O)c2cc(S(=O)(=O)c3ccccc3)ccc2Cl)C1 (stereo not shown) [Example 645, ethyl 1-{[2-chloro-5-(phenylsulfonyl)phenyl]sulfonyl}piperidine-3-carboxylate]",fold induction at 15 µM,[3],1
same,fold induction at 15 µM,[4],1.1
"O=S(=O)(NCc1ccc(Br)cc1)c1cc(S(=O)(=O)c2ccccc2)ccc1C(F)(F)F [Example 964, N-(4-bromobenzyl)-5-(phenylsulfonyl)-2-(trifluoromethyl)benzenesulfonamide]",fold induction at 10 µM,,1.2
"CCOc1ccc(CCNS(=O)(=O)c2cccc(S(=O)(=O)c3ccccc3)c2)cc1 [Example 80, N-[2-(4-ethoxyphenyl)ethyl]-3-(phenylsulfonyl)benzenesulfonamide]",fold induction at 15 µM,[1],1
same,fold induction at 15 µM,[2],0.7
"Cc1cc(C)c(S(=O)(=O)c2ccc(F)cc2)cc1S(=O)(=O)NCCCn1ccnc1 [Example 330, 5-[(4-fluorophenyl)sulfonyl]-N-[3-(1H-imidazol-1-yl)propyl]-2,4-dimethylbenzenesulfonamide]",fold induction at 15 µM,[1],3.2
same,fold induction at 15 µM,[2],1.1
"Cc1ccc(S(=O)(=O)c2ccoc2C)cc1S(=O)(=O)NCCCn1ccnc1 [Example 363, N-[3-(1H-imidazol-1-yl)propyl]-2-methyl-5-[(2-methyl-3-furyl)sulfonyl]benzenesulfonamide]",fold induction at 15 µM,[1],2.1
same,fold induction at 15 µM,[2],1.1
"Cc1ccc(S(=O)(=O)c2ccccc2)cc1S(=O)(=O)NC(C)C(O)c1ccccc1 (stereo not drawn) [Example 390, trans-N-(2-hydroxy-1-methyl-2-phenylethyl)-2-methyl-5-(phenylsulfonyl)benzenesulfonamide]",Fold Induction with SFRP-1,[5],2.2 fold
same,Fold Induction without SFRP-1,"without SFRP-1, single dose",1.1 fold
"CCOc1ccc(CCNS(=O)(=O)c2cc(S(=O)(=O)c3ccccc3)ccc2C)cc1 [Example 51, N-[2-(4-ethoxyphenyl)ethyl]-2-methyl-5-(phenylsulfonyl)benzenesulfonamide]",fold induction at 30 µM,[6],2.6
same,fold induction at 30 µM,[7],0.9
"CCOc1cc(CCNS(=O)(=O)c2cccc(S(=O)(=O)c3ccccc3)c2)ccc1OC [Example 83, N-[2-(3-ethoxy-4-methoxyphenyl)ethyl]-3-(phenylsulfonyl)benzenesulfonamide]",fold induction at 15 µM,[1],1.3
same,fold induction at 15 µM,[2],1.2
"O=S(=O)(NC1CCOCC1)c1cc(S(=O)(=O)c2ccccc2)ccc1Cl [Example 361, 2-chloro-5-(phenylsulfonyl)-N-(tetrahydro-2H-pyran-4-yl)benzenesulfonamide]",fold induction at 15 µM,[1],2.3
same,fold induction at 15 µM,[2],0.9
"Cc1ccc(S(=O)(=O)c2ccc(Cl)cc2)cc1S(=O)(=O)NC[C@@H](C)c1ccccc1 [Example 265, 5-[(4-chlorophenyl)sulfonyl]-2-methyl-N-[(2S)-2-phenylpropyl]benzenesulfonamide]",Fold Induction with SFRP-1,[5],1.2 fold
same,Fold Induction without SFRP-1,"without SFRP-1, single dose",1 fold
same,fold induction at 15 µM,[1],1.1
same,fold induction at 15 µM,[2],1.1
"Cc1ccc(S(=O)(=O)c2ccccc2)cc1S(=O)(=O)NCCCN(C)C [Example 216, N-[3-(dimethylamino)propyl]-2-methyl-5-(phenylsulfonyl)benzenesulfonamide]",fold induction at 15 µM,[1],3.6
same,fold induction at 15 µM,[2],1.3
"Cc1ccc(S(=O)(=O)c2ccccc2)cc1S(=O)(=O)NC(=O)[C@@H](N)Cc1ccccc1 [Example 364, N-{[2-methyl-5-(phenylsulfonyl)phenyl]sulfonyl}-L-phenylalaninamide]",fold induction at 15 µM,[1],1.2
same,fold induction at 15 µM,[2],1
"Cc1ccc(S(=O)(=O)c2ccccc2)cc1S(=O)(=O)N1CCN(CC(=O)N2CCCC2)CC1 [Example 279, 1-{[2-methyl-5-(phenylsulfonyl)phenyl]sulfonyl}-4-(2-oxo-2-pyrrolidin-1-ylethyl)piperazine]",fold induction at 15 µM,[1],1.9
same,fold induction at 15 µM,[2],1
"C[C@H](CNS(=O)(=O)c1cccc(S(=O)(=O)c2ccccc2)c1)c1ccccc1 [Example 263, N-[(2S)-2-phenylpropyl]-3-(phenylsulfonyl)benzenesulfonamide]",fold induction at 15 µM,[1],0.8
same,fold induction at 15 µM,[2],1.1
"CN1CCCC1CCNS(=O)(=O)c1cccc(S(=O)(=O)c2ccccc2)c1 (stereo not shown) [Example 186, N-[2-(1-methylpyrrolidin-2-yl)ethyl]-3-(phenylsulfonyl)benzenesulfonamide]",fold induction at 30 µM,[6],1.3
same,fold induction at 30 µM,[7],1.3
"CCc1ccc(S(=O)(=O)c2ccccc2)cc1S(=O)(=O)NCCc1ccc(OC)c(OC)c1 [Example 144, N-[2-(3,4-dimethoxyphenyl)ethyl]-2-ethyl-5-(phenylsulfonyl)benzenesulfonamide]",fold induction at 15 µM,[1],3
same,fold induction at 15 µM,[2],1.1
"CC(=O)c1cccc(S(=O)(=O)c2ccc(C)c(S(=O)(=O)NCCc3ccccn3)c2)c1 [Example 419, 5-[(3-acetylphenyl)sulfonyl]-2-methyl-N-(2-pyridin-2-ylethyl)benzenesulfonamide]",fold induction at 15 µM,[1],2.5
same,fold induction at 15 µM,[2],1.3
"Cc1ccc(S(=O)(=O)c2ccc(F)cc2)cc1S(=O)(=O)NCCCN(C)C [Example 174, N-[3-(dimethylamino)propyl]-5-[(4-fluorophenyl)sulfonyl]-2-methylbenzenesulfonamide]",fold induction at 15 µM,[1],2.8
same,fold induction at 15 µM,[2],1.2
"Cc1ccc(S(=O)(=O)c2ccc(NCc3ccc(C(F)(F)F)cc3)cc2)cc1S(=O)(=O)NCCCn1ccnc1 [Example 374, N-[3-(1H-imidazol-1-yl)propyl]-2-methyl-5-[(4-{[4-(trifluoromethyl)benzyl]amino}phenyl)sulfonyl]benzenesulfonamide]",fold induction at 15 µM,[1],1.5
same,fold induction at 15 µM,[2],0.9
